≈ marks a conversion by molar mass, not a printed value. Calls of active or inactive are those of the source. No cut-off for these calls is given here. Positions of bridges follow the written chain, without caps; N, C: chain ends. Non-standard residues stand in square brackets, D forms with d. Residues, ends and D or L forms follow the SMILES beside them. *: point of attachment. X1 = CC[C@H](C)CCCCC(=O)*; Dab = NCC[C@H](N)C(=O)O
Tests used:
[1] = test system: Staphylococcus aureus; assay: Antimicrobial activity against methicillin-resistant Staphylococcus aureus 113 after 18 hrs by broth microdilution method; format: functional
[2] = Binding affinity to LTA (unknown origin) assessed as bacterial killing at 2 times MIC preincubated for 1 hr followed by Staphylococcus aureus ATCC 25923 addition and measured after 2 hrs by colony counting method; settings: time 3.0 hrs
[3] = test system: Cell membrane; assay: Induction of membrane disruption in Staphylococcus aureus ATCC 25923 assessed as PI-positive cells at 4 times MIC measured after 2 hrs by propidium iodide staining based flow cytometry relative to control
[4] = Toxicity in BALB/c mouse assessed as inflammatory cell infiltration in liver at 20 mg/kg, ip administered as single dose measured after 5 days; format: organism-based; settings: in vivo, 120 h, time 5 day
[5] = test system: Lipopolysaccharide (LPS); assay: Binding affinity to LPS (unknown origin) assessed as bacterial killing at 2 times MIC preincubated for 1 hr followed by Staphylococcus aureus ATCC 25923 addition and measured after 2 hrs by colony counting method; settings: time 3.0 hrs
[6] = test system: Staphylococcus aureus; assay: Antibiofilm activity against Staphylococcus aureus ATCC 25923 at 0.5 to 8 uM after 24 hrs by crystal violet staining based assay; format: functional, organism-based; settings: dose 0.5-8 µM
[7] = test system: Staphylococcus aureus; assay: Antimicrobial activity against Staphylococcus aureus ATCC 25923 at 0.5 times MIC after 15 passages by broth microdilution method; format: functional, organism-based
[8] = test system: Staphylococcus aureus; assay: Antimicrobial activity against methicillin-resistant Staphylococcus aureus 75 after 18 hrs by broth microdilution method; format: functional
[9] = test system: Staphylococcus aureus; assay: Induction of reactive oxygen species generation in Staphylococcus aureus ATCC 25923 by […] dye based fluorescence assay; format: functional, organism-based
[10] = test system: Staphylococcus aureus; assay: Induction of nucleic acid leakage in Staphylococcus aureus ATCC 25923 at 4 times MIC; format: functional
[11] = Toxicity in BALB/c mouse assessed as death at 20 mg/kg, ip administered as single dose measured within 24 hrs; format: organism-based; settings: in vivo
[12] = Toxicity in BALB/c mouse assessed as ruffled fur at 20 to 80 mg/kg, ip administered as single dose measured within 30 mins; format: organism-based; settings: in vivo, 0.5 h, dose 20-80 mg/kg
[13] = test system: Bacillus subtilis; assay: Antimicrobial activity against Bacillus subtilis ATCC 23857 after 18 hrs by broth microdilution method; format: functional
[14] = Toxicity in BALB/c mouse assessed as death at 20 to 80 mg/kg, ip administered as single dose measured within 30 mins; format: organism-based; settings: in vivo, 0.5 h, dose 20-80 mg/kg
[15] = test system: Staphylococcus aureus; assay: Antimicrobial activity against Staphylococcus aureus ATCC 25923 assessed as bacterial killing preincubated for 4 hrs followed by replating on MHB agar and measured after 24 hrs by time kill assay; format: functional, organism-based; settings: time 28.0 hrs
[16] = test system: Cell membrane; assay: Induction of membrane disruption in Staphylococcus aureus ATCC 25923 measured after 2 hrs by propidium iodide staining based confocal laser scanning microscopic analysis; format: subcellular
[17] = test system: Staphylococcus epidermidis; assay: Antimicrobial activity against Staphylococcus epidermidis ATCC 12228 after 18 hrs by broth microdilution method; format: functional
[18] = test system: Staphylococcus aureus; assay: Antimicrobial activity against Staphylococcus aureus ATCC 29213 after 18 hrs by broth microdilution method; format: functional
[19] = test system: Staphylococcus aureus; assay: Antibiofilm activity against ciprofloxacin-resistant Staphylococcus aureus ATCC 25923 at 0.5 to 8 uM after 24 hrs by crystal violet staining based assay; format: functional, organism-based; settings: dose 0.5-8 µM
[20] = test system: Staphylococcus aureus; assay: Antimicrobial activity against Staphylococcus aureus ATCC 25923 after 18 hrs by broth microdilution method; format: functional
[21] = Toxicity in BALB/c mouse assessed as congestion in liver at 20 mg/kg, ip administered as single dose measured after 5 days; format: organism-based; settings: in vivo, 120 h, time 5 day
[22] = Toxicity in BALB/c mouse assessed as immobility at 20 to 80 mg/kg, ip administered as single dose measured within 30 mins; format: organism-based; settings: in vivo, 0.5 h, dose 20-80 mg/kg
[23] = Toxicity in BALB/c mouse assessed as congestion in kidney at 40 mg/kg, ip administered as single dose measured after 5 days; format: organism-based; settings: in vivo, 120 h, time 5 day
[24] = Toxicity in BALB/c mouse assessed as liver cell lysis at 80 mg/kg, ip administered as single dose measured after 5 days; format: organism-based; settings: in vivo, 120 h, time 5 day
[25] = Toxicity in BALB/c mouse assessed as swelling of renal tubular epithelial cells at 80 mg/kg, ip administered as single dose measured after 5 days; format: organism-based; settings: in vivo, 120 h, time 5 day
[26] = test system: Staphylococcus epidermidis; assay: Antimicrobial activity against Staphylococcus epidermidis ATCC 12228 at 0.5 times MIC after 15 passages by broth microdilution method; format: functional, organism-based
[27] = Toxicity in BALB/c mouse assessed as vacuoles in liver cytoplasm at 20 mg/kg, ip administered as single dose measured after 5 days; format: organism-based; settings: in vivo, 120 h, time 5 day
[28] = test system: Cell membrane; assay: Induction of membrane disruption in Staphylococcus aureus ATCC 25923 assessed as PI-positive cells at 2 times MIC measured after 2 hrs by propidium iodide staining based flow cytometry relative to control
[29] = Toxicity in BALB/c mouse assessed as inflammatory cell infiltration in kidney at 80 mg/kg, ip administered as single dose measured after 5 days; format: organism-based; settings: in vivo, 120 h, time 5 day
[30] = test system: Cell membrane; assay: Induction of cytoplasmic membrane disruption in Staphylococcus aureus ATCC 25923 measured for 15 mins by DiSC3-5 dye based fluorescence assay
[31] = Toxicity in BALB/c mouse assessed as eosinophilic mass in the renal tubular lumen at 80 mg/kg, ip administered as single dose measured after 5 days; format: organism-based; settings: in vivo, 120 h, time 5 day

Structure (SMILES): CC[C@H](C)CCCCC(=O)N[C@@H](CCN)C(=O)N[C@H](C(=O)N[C@@H](CCN)C(=O)N[C@H]1CCNC(=O)[C@H]([C@@H](C)O)NC(=O)[C@H](CCN)NC(=O)[C@H](CCN)NC(=O)[C@H](CC(C)C)NC(=O)[C@@H](Cc2ccccc2)NC(=O)[C@H](CCN)NC1=O)[C@@H](C)O (X1-[Dab]T[Dab][Dab][Dab][dF]L[Dab][Dab]T; lactam 4-C)
- MIC [1]: 8 µM (≈ 9.63 µg/mL)
- Activity [2]: Active
- Activity [3]: 84.8%
- Activity [4]: Toxic
- Activity [5]: Active
- Activity [6]: Active
- Activity [7]: Active
- MIC [8]: 8 µM (≈ 9.63 µg/mL)
- Activity [9]: Active
- Activity [10]: inactive
- Activity [11]: Toxic
- Activity [12]: Toxic
- MIC [13]: 8 µM (≈ 9.63 µg/mL)
- Activity [14]: Toxic
- Activity [15]: inactive
- Activity [16]: inactive
- MIC [17]: 8 µM (≈ 9.63 µg/mL)
- MIC [18]: 16 µM (≈ 19.3 µg/mL)
- Activity [19]: Active
- MIC [20]: 16 µM (≈ 19.3 µg/mL)
- Activity [21]: Toxic
- Activity [22]: Toxic
- Activity [23]: Toxic
- Activity [24]: Toxic
- Activity [25]: Toxic
- Activity [26]: Active
- Activity [27]: Toxic
- Activity [28]: 68%
- Activity [29]: Toxic
- Activity [30]: inactive
- Activity [31]: Toxic

Source: ChEMBL document CHEMBL4706653, “Ultra-short lipopeptides against gram-positive bacteria while alleviating antimicrobial resistance” (Eur J Med Chem, 2021)
